This is an account of results in patent US10899759B2, “Positive allosteric modulators of the muscarinic acetylcholine receptor M1” (Vanderbilt University, priority 2016, dated 2021).

This assay deals with T1, human mAChR M1 (Homo sapiens, UniProt P11229).
T1 construct: host or cells: CHO-K1
T1 sequence (P11229 1-460): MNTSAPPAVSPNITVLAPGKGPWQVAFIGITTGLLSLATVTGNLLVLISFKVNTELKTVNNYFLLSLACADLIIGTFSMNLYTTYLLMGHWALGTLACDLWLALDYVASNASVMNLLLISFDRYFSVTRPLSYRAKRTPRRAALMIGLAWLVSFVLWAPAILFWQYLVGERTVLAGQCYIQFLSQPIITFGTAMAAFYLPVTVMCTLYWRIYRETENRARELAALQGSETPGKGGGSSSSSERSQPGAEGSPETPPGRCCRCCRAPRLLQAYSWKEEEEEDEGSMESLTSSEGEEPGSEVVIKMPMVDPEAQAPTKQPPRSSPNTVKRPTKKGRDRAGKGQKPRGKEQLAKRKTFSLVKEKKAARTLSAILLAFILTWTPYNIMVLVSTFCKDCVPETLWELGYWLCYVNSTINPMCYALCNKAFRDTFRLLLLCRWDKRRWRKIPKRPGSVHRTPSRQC
Nature of the assay: mAChR M1 cell-based functional assay (calcium mobilization, Fluo-4, FDSS). The conditions noted are these: for pEC50: positive allosteric modulator activity as increase in the EC20 acetylcholine response. The method, boiled down: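 CHO-K1 cells stably expressing muscarinic receptor, loaded with Fluo-4; 11-point 1:3 compound series added and calcium flux read over 300 s at 1 Hz. Agonism from direct calcium rise, PAM activity as potentiation of EC20 acetylcholine, antagonism as decrease of EC80 acetylcholine; four-parameter logistic fits.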

[1] abbreviates: CHO-K1 cells stably expressing hM1, EC20 acetylcholine response, read-out: Human M1 Emax.
[2] abbreviates: CHO-K1 cells stably expressing hM1.

pEC50: −log10 of the molar value. Where two headings read alike, the source gives them in different places.

Take `Cn1ncc2c(Cc3ccc(-c4cscn4)cc3)cc(C(=O)N[C@H]3CCOC[C@@H]3O)nc21` [Compound 27, N-[(3R,4S)-3-hydroxytetrahydropyran-4-yl]-1-methyl-4-[(4-thiazol-4-ylphenyl)methyl]pyrazolo[3,4-b]pyridine-6-carboxamide]: the maximal effect (Emax) under setting [1] was 75.1%. Besides, the pEC50 under setting [2] is 7.15.
As for `Cn1ccc2c(Cc3ccc(-c4cscn4)cc3)cc(C(=O)N[C@H]3CC[C@@H]3O)nc21` [Compound 3, N-[(1S,2S)-2-hydroxycyclobutyl]-1-methyl-4-[(4-thiazol-4-ylphenyl)methyl]pyrrolo[2,3-b]pyridine-6-carboxamide], the Emax (CHO-K1, read-out: Human M1 Emax) was 70.4%. In addition, under setting [2], the pEC50 was 6.44.
Regarding `Cc1nc(-c2ccc(Cc3cc(C(=O)N[C@H]4CCOC4)nc4sccc34)cc2)co1` [Compound 136, 4-[[4-(2-methyloxazol-4-yl)phenyl]methyl]-N-[(3S)-tetrahydrofuran-3-yl]thieno[2,3-b]pyridine-6-carboxamide], the Emax under setting [1] came to 60.6%. For the same compound, the pEC50 under setting [2] was 6.21.
For `Cn1cc(-c2ccc(Cc3cc(C(=O)N[C@H]4CCCC[C@@H]4O)nc4sccc34)cn2)cn1` [Compound 113, N-[(1S,2S)-2-hydroxycyclohexyl]-4-[[6-(1-methylpyrazol-4-yl)-3-pyridyl]methyl]thieno[2,3-b]pyridine-6-carboxamide], the Emax under setting [1] stood at 60.5%. The negative logarithm of the EC50 (pEC50) under setting [2] is 6.09.
Turning to `Cc1nc(-c2ccc(Cc3cc(C(=O)NCC4CCOCC4)nc4c3ccn4C)cc2)co1` [Compound 58, 1-methyl-4-[[4-(2-methyloxazol-4-yl)phenyl]methyl]-N-(tetrahydropyran-4-ylmethyl)pyrrolo[2,3-b]pyridine-6-carboxamide], under setting [1], the Emax worked out at 84.1%. Moreover, under setting [2], the pEC50 is 5.98.
The like results for `Cn1ccc(-c2ccc(Cc3cc(C(=O)NCC4CCOCC4)nc4c3ccn4C)cn2)n1` [Compound 150] were, in that order, 77.7% and 6.09.
As to `Cn1ccc(-c2ccc(Cc3cc(C(=O)NC4CCOCC4)nc4sccc34)cc2)n1` [Compound 87, 4-[[4-(1-methylpyrazol-3-yl)phenyl]methyl]-N-tetrahydropyran-4-yl-thieno[2,3-b]pyridine-6-carboxamide], the Emax under setting [1] is 60.4%. Moreover, under setting [2], the pEC50 was 5.67.
Consider `Cn1cc(-c2ccc(Cc3cc(C(=O)N[C@H]4CC[C@@H]4O)nc4c3ccn4C)cn2)cn1` [Compound 50, N-[(1S,2S)-2-hydroxycyclobutyl]-1-methyl-4-[[6-(1-methylpyrazol-4-yl)-3-pyridyl]methyl]pyrrolo[2,3-b]pyridine-6-carboxamide], for which the Emax under setting [1] is 86.2%. Under setting [2], the negative-log EC50 (pEC50) was 6.42.
For the compound `Cn1ccc(-c2ccc(Cc3cc(C(=O)NCC4CCOC4)nc4sccc34)cc2)n1` (stereo not drawn) [Compound 95, 4-[[4-(1-methylpyrazol-3-yl)phenyl]methyl]-N-(tetrahydrofuran-3-ylmethyl)thieno[2,3-b]pyridine-6-carboxamide], under setting [1], the Emax turned out to be 65.5%. Moreover, under setting [2], the pEC50 was 6.43.
In the case of `Cn1ccc2c(Cc3ccc(-n4cccn4)cc3)cc(C(=O)N[C@H]3CCOC[C@@H]3O)nc21` [Compound 16, N-[(3R,4S)-3-hydroxytetrahydropyran-4-yl]-1-methyl-4-[(4-pyrazol-1-ylphenyl)methyl]pyrrolo[2,3-b]pyridine-6-carboxamide], the Emax under setting [1] worked out at 63.4%. Moreover, the pEC50 under setting [2] is 8.00.
As to `Cn1ncc2c(Cc3ccc(-n4cccn4)cc3)cc(C(=O)N[C@H]3CCCC[C@@H]3O)nc21` [Compound 8, N-[(1S,2S)-2-hydroxycyclohexyl]-1-methyl-4-[(4-pyrazol-1-ylphenyl)methyl]pyrazolo[3,4-b]pyridine-6-carboxamide], the maximal response (Emax) under setting [1] came out at 86.6%. The pEC50 under setting [2] is 6.70.
Turning to `Cc1nc(-c2ccc(Cc3cc(C(=O)NC4CC(C)OC(C)C4)nc4sccc34)cc2)co1` (stereo not drawn) [Compound 132, N-(2,6-dimethyltetrahydropyran-4-yl)-4-[[4-(2-methyloxazol-4-yl)phenyl]methyl]thieno[2,3-b]pyridine-6-carboxamide], the Emax under setting [1] is 58.9%. In addition, the negative-log EC50 (pEC50) under setting [2] was 5.98.
